Assay results as given in ChEMBL document CHEMBL5661943, “ASAP - In vitro antiviral effect” (2024).

What was measured:
Zika virus = experiment: Functional CPE-based assay to measure dose dependent changes in antiviral-drug inhibitory efficacy against Zika virus MR766 in Vero E6 miRFP670 cells. Cells are treated with antiviral candidates that are serially diluted. EC50 is reported via analysis of MTS assay as a readout of CPE. The assay has been performed by KU Leuven.; assay type: organism-based, Chlorocebus sabaeus, Vero C1008; conditions: Zika virus
dengue virus type 2 = experiment: Functional assay to measure dose dependent changes in antiviral-drug inhibitory efficacy against Dengue virus type 2 New Guinea C in Vero E6 miRFP670 cells (cotreated with P-gp inhibitor, CP100356). Cells are treated with antiviral candidates that are serially diluted, following infection, cells are fixed. EC50 is reported via analysis of fluorescence intensity using high-content imager. The …; assay type: organism-based, Chlorocebus sabaeus, Vero C1008; conditions: Dengue virus

SMILES | EC50 (Zika virus; Vero C1008) [µM] | EC50 (dengue virus type 2; Vero C1008) [µM] | also measured
C=CC[C@H](Nc1ccc(-c2nn[nH]n2)cc1)c1cc(Cl)cc(NC(=O)OCc2ccccc2)c1 | 13.7 | 1.84 | EC90 (Zika virus; Vero C1008, Baseline response 0 %, EC90 CI (lower) 0 uM, EC90 CI (upper) -3.27181e+18 uM, Hill slope 17.95, Maximum measured 103.91 %, Maximum response 100 %, Minimum measured 1.446 %, R squared 0.986): 15.5 µM; EC90 (dengue virus type 2; Vero C1008, Baseline response 0 %, EC90 CI (lower) 0.301 uM, EC90 CI (upper) 0.468 uM, Hill slope -1.382, Maximum measured 87.879 %, Maximum response 100 %, Minimum measured 3.84 %, P-gp concentration 500 nM, R squared 0.99, P-gp inhibitor CP100356): 9.02 µM
CCCNC(=O)[C@H](Nc1cccc(-c2nn[nH]n2)c1)c1cc(Cl)cc(NC(=O)OCc2ccccc2)c1 | > 50 | > 50 | EC90 (Zika virus; Vero C1008, Baseline response 0 %, Hill slope 3.408, Maximum measured 22.38 %, Maximum response 100 %, Minimum measured 1.712 %, R squared 0.919): > 50 µM; EC90 (dengue virus type 2; Vero C1008, Baseline response 0 %, Hill slope 1.238, Maximum measured 113.655 %, Maximum response 100 %, Minimum measured 85.317 %, P-gp concentration 500 nM, R squared 0.426, P-gp inhibitor CP100356): > 50 µM
O=C(Nc1ccc(C2CNC2)cc1)c1cc(Cl)cc2[nH]ncc12 | > 50 | 8.78 | EC90 (Zika virus; Vero C1008, Maximum measured 1.247 %, Minimum measured -2.682 %): > 50 µM; EC90 (dengue virus type 2; Vero C1008, Baseline response 0 %, EC90 CI (lower) 1.814 uM, EC90 CI (upper) 3.53 uM, Hill slope -1.767, Maximum measured 103.682 %, Maximum response 100 %, Minimum measured 12.273 %, P-gp concentration 500 nM, R squared 0.972, P-gp inhibitor CP100356): 30.4 µM
Cn1ncc2c(C(=O)Nc3ccc4c(c3)CNC4)cc(Br)cc21 | > 50 | < 0.391 | EC90 (Zika virus; Vero C1008, Baseline response 0 %, Hill slope 2.334, Maximum measured 28.881 %, Maximum response 100 %, Minimum measured -5.706 %, R squared 0.821): > 50 µM; EC90 (dengue virus type 2; Vero C1008, Baseline response 0 %, Hill slope 1.42, Maximum measured 130.593 %, Maximum response 100 %, Minimum measured 71.5 %, P-gp concentration 500 nM, R squared 0.202, P-gp inhibitor CP100356): < 0.391 µM
NCc1cc(/C=C/C(=O)O)cc(NC(=O)c2cc(Cl)cc(NC(=O)OCc3ccccc3)c2)c1 | > 50 | > 50 | EC90 (Zika virus; Vero C1008, Baseline response 0 %, Hill slope -0.386, Maximum measured 1.272 %, Maximum response 100 %, Minimum measured -0.891 %, R squared 0.02): > 50 µM; EC90 (dengue virus type 2; Vero C1008, Maximum measured 167.512 %, Minimum measured 81.46 %, P-gp concentration 500 nM, P-gp inhibitor CP100356): > 50 µM
C=CC[C@H](Nc1cc(Cl)cc(NC(=O)OCc2ccccc2)c1)c1ccc(-c2nn[nH]n2)cc1 | 2.26 | < 0.391 | EC90 (Zika virus; Vero C1008, Baseline response 0 %, EC90 CI (lower) 3.03 uM, EC90 CI (upper) 8.689 uM, Hill slope 2.685, Maximum measured 114.091 %, Maximum response 100 %, Minimum measured 6.468 %, R squared 0.926): 5.13 µM; EC90 (dengue virus type 2; Vero C1008): 0.683 µM
NCc1cccc(NC(=O)c2cc(Cl)cc3c2cnn3CC2CC2)c1 | > 50 | 12.4 | EC90 (Zika virus; Vero C1008, Baseline response 0 %, Hill slope 0.179, Maximum measured 64.548 %, Maximum response 100 %, Minimum measured -3.549 %, R squared 0.025): > 50 µM; EC90 (dengue virus type 2; Vero C1008): > 12.5 µM
CC(C)Oc1ccc(S(=O)(=O)Nc2ccc(Cl)cc2C(=O)O)cc1 | > 50 | 11.1 | EC90 (Zika virus; Vero C1008, Baseline response 0 %, Hill slope 0.349, Maximum measured 6.596 %, Maximum response 100 %, Minimum measured -0.897 %, R squared 0.277): > 50 µM; EC90 (dengue virus type 2; Vero C1008, Baseline response 0 %, Hill slope -49.91, Maximum measured 106.831 %, Maximum response 100 %, Minimum measured 0.108 %, P-gp concentration 500 nM, R squared 0.989, P-gp inhibitor CP100356): 11.6 µM
O=C(Nc1cccc(-c2nnn[nH]2)c1)c1cc(Cl)cc2[nH]ncc12 | > 50 | > 50 | EC90 (Zika virus; Vero C1008, Maximum measured 0.889 %, Minimum measured -1.258 %): > 50 µM; EC90 (dengue virus type 2; Vero C1008, Maximum measured 107.824 %, Minimum measured 101.456 %, P-gp concentration 500 nM, P-gp inhibitor CP100356): > 50 µM
O=C(Nc1cc(Cl)cc(C(=O)Nc2cccc([C@H]3C[C@H]3C(=O)O)c2)c1)OCc1ccccc1 | > 50 | > 50 | EC90 (Zika virus; Vero C1008, Baseline response 0 %, Hill slope 7.946, Maximum measured 10.264 %, Maximum response 100 %, Minimum measured -1.789 %, R squared 0.722): > 50 µM; EC90 (dengue virus type 2; Vero C1008, Maximum measured 111.056 %, Minimum measured 105.114 %, P-gp concentration 500 nM, P-gp inhibitor CP100356): > 50 µM
O=C(Nc1cc(Cl)cc(-c2ccc3[nH]nc(C(=O)O)c3c2)c1)OCc1ccccc1 | > 50 | > 50 | EC90 (Zika virus; Vero C1008, Baseline response 0 %, Hill slope 0.266, Maximum measured 1.773 %, Maximum response 100 %, Minimum measured -0.573 %, R squared 0.018): > 50 µM; EC90 (dengue virus type 2; Vero C1008, Maximum measured 168.4 %, Minimum measured 111.066 %, P-gp concentration 500 nM, P-gp inhibitor CP100356): > 50 µM
O=C(NCC1CC1)c1cc(Cl)ccc1NS(=O)(=O)c1ccc(Oc2ccccc2Cl)cc1 | > 50 | 6.05 | EC90 (Zika virus; Vero C1008, Maximum measured -0.067 %, Minimum measured -1.21 %): > 50 µM; EC90 (dengue virus type 2; Vero C1008, Baseline response 0 %, Hill slope -26.927, Maximum measured 110.675 %, Maximum response 100 %, Minimum measured 0.394 %, P-gp concentration 500 nM, R squared 0.827, P-gp inhibitor CP100356): 6.57 µM
